# From the NIST ThermoML archive (doi:10.1016/j.fluid.2011.12.007)
# ± gives the expanded uncertainty stated by the source.
# Legend:
# [1] = for mass density: 101.33 kPa, Liquid, Vibrating tube method; for surface tension liquid-gas: Maximal bubble pressure
# [2] = refractive index (Na D-line) (dimensionless); details: 298.15 K; 101.33 kPa; Liquid; Standard Abbe refractometry
# [3] = xn = mol fraction of the nth substance listed; details: 303.15 K, Maximal bubble pressure
# [4] = Boiling temperature at pressure P; details: 101.33 kPa; Liquid; Ebulliometric method (Recirculating still)
structure (smiles),measurement,setting,value
CCCCCC [hexane],mass density,[1]; 298.15 K,655.19 ± 0.17 kg/m3
same,refractive index,[2],1.37374 ± 0.00031
CCCCCC [hexane] + C1CCOCC1,surface tension liquid-gas,[3]; x1 = 1,17.4 ± 0.25 mN/m
C1CCOCC1 [tetrahydropyran],surface tension liquid-gas,[1]; 283.15 K,29.61 ± 0.28 mN/m
same,surface tension liquid-gas,[1]; 288.15 K,29.15 ± 0.28 mN/m
same,surface tension liquid-gas,[1]; 293.15 K,28.56 ± 0.28 mN/m
same,surface tension liquid-gas,[1]; 298.15 K,28 ± 0.28 mN/m
same,mass density,[1]; 298.15 K,879.03 ± 0.09 kg/m3
same,surface tension liquid-gas,[1]; 303.15 K,27.14 ± 0.27 mN/m
same,surface tension liquid-gas,[1]; 308.15 K,26.5 ± 0.27 mN/m
same,surface tension liquid-gas,[1]; 313.15 K,25.55 ± 0.27 mN/m
same,surface tension liquid-gas,[1]; 318.15 K,25.25 ± 0.27 mN/m
same,surface tension liquid-gas,[1]; 323.15 K,24.23 ± 0.27 mN/m
same,surface tension liquid-gas,[1]; 328.15 K,23.6 ± 0.26 mN/m
same,surface tension liquid-gas,[1]; 333.15 K,22.75 ± 0.26 mN/m
same,Boiling temperature at pressure P,[4],88.21 ± 0.04 °C
same,refractive index,[2],1.42 ± 0.00031
C1CCOCC1 [tetrahydropyran] + CCCCCC,surface tension liquid-gas,[3]; x2 = 0,27.1 ± 0.27 mN/m
same,surface tension liquid-gas,[3]; x2 = 0.045,26.47 ± 0.27 mN/m
same,surface tension liquid-gas,[3]; x2 = 0.09,25.64 ± 0.27 mN/m
same,surface tension liquid-gas,[3]; x2 = 0.181,24.39 ± 0.27 mN/m
same,surface tension liquid-gas,[3]; x2 = 0.282,23.17 ± 0.26 mN/m
same,surface tension liquid-gas,[3]; x2 = 0.383,22.03 ± 0.26 mN/m
same,surface tension liquid-gas,[3]; x2 = 0.487,21.13 ± 0.26 mN/m
same,surface tension liquid-gas,[3]; x2 = 0.589,20.39 ± 0.26 mN/m
same,surface tension liquid-gas,[3]; x2 = 0.674,19.47 ± 0.25 mN/m
same,surface tension liquid-gas,[3]; x2 = 0.786,18.77 ± 0.25 mN/m
same,surface tension liquid-gas,[3]; x2 = 0.899,18.12 ± 0.25 mN/m
same,surface tension liquid-gas,[3]; x2 = 0.964,17.46 ± 0.25 mN/m
